Data published in patent US20090227606A1, “Methods for Preventing or Treating Acute and Chronic Pain” (priority 2006, published 2009).
Entries after “also recorded” stand apart in the source; their conditions may differ.

Key:
cAMP = cAMP levels in treated astrocytes, radio-receptor competition assay; format: cell-based, rat; settings: days 3 and 7
Procedure: Subsequently, cells were harvested and boiled for 3 minutes followed by high-speed (8,000×g) centrifugation. Fifty microliters of the resultant supernatant (total of 300 μl) was used to determine cAMP levels in the competition assay. cAMP levels were measured using a radio-receptor competition assay. In brief, [^3H] cAMP was used in competition for a cAMP binding protein (PKA) against known concentrations of non-radiolabeled cAMP, followed by determination of the unknowns. The reaction was allowed to proceed for 2 hours at 4° C. Charcoal was used to remove excess unbound cAMP. Finally, samples were counted in 5 ml Liquiscint™ (National Diagnostics, Atlanta, Ga.).

adenosine transport = settings: literature; cited from earlier work
GLT-1 = assay: Immunocytochemistry of cultured astrocytes, GLT-1 staining; format: cell-based, rat; settings: treated astrocytes
Procedure: Primary astrocyte-enriched cultures were plated onto sterile 18 mm glass coverslips. After three washes in PBS, cells were permeabilized in 5% glacial acetic acid/95% ethanol (acid-alcohol) for 10 minutes. After washing, cells were incubated in a 1% normal goat serum for 30 minutes and then overnight at 4° C. in primary mouse anti-GFAP (1:500), rabbit anti-GLT-1 (1:500) or guinea pig anti-GLAST (1:2000). The following day, cells were washed and then incubated for 2 hours at room temperature with goat anti-mouse Alexa Fluor™-555 (Invitrogen Corporation, Carlsbad, Calif.) goat anti-guinea pig Alexa Fluor™-488 (Invitrogen Corporation, Carlsbad, Calif.) or goat anti-rabbit Alexa Fluor™-488 (Invitrogen Corporation, Carlsbad, Calif.; all at 1:250). Finally, cells were post-fixed in acid-alcohol and mounted with Vectashield (Vector Labs, Burlingame, Calif.) containing 4′,6-diamidino-2-phenylindole dihydrochloride hydrate (DAPI, Sigma Chemical Co., St Louis, Mo.), in order to visualize cell nuclei. The sections were examined with a fluorescence microscope, and images were captured with a Q-Fire cooled camera (Olympus, Melville, N.Y.). Confocal microscopy was also performed using a Zeiss LSM 510 Meta confocal microscope (Carl Zeiss AG, Oberkochen, Germany). Merged color images were processed using Adobe Photoshop 7.0 (Adobe Systems, San Jose, Calif.).

[1] = system: L5 spinal nerve transected rats; assay: Mechanical allodynia after L5 spinal nerve transection in rats; format: in vivo, rat
Procedure: Male Sprague Dawley rats (Harlan, Indianapolis, Ind.) weighing 150-175 g at the start of surgery were housed individually and maintained in a 12:12 light/dark cycle with ad libitum access to food and water. The animals were allowed to habituate to the housing facilities for 1 week before experiments began. Behavioral studies were performed in a quiet room between the hours of 7:00 and 10:00 A.M. The Institutional Animal Care and Use Committee at Dartmouth College approved all procedures in this study. Efforts were made to limit animal distress and use the minimum number of animals necessary to achieve statistical significance, in accord with guidelines set forth by the International Association for the Study of Pain.
Unilateral mononeuropathy was produced according to the method described by Colburn et al. (1999. Exp. Neurol. 157:289-304). Briefly, rats were anesthetized by inhalation of halothane in an O2 carrier (induction, 4%; maintenance, 2%). […] The L6 transverse process was partially removed, exposing the L4 and L5 spinal nerves. The L5 spinal nerve was identified, separated, lifted, and transected, followed by removal of a 3-mm distal segment of nerve to prevent reconnection. […]
Mechanical sensitivity to non-noxious stimuli was measured by applying 2 g and 12 g von Frey filaments (Stoelting, Wood Dale, Ill.) to the plantar surface of the ipsilateral hind paw (n=8-12/group). […]

SMILES: CCCn1cnc2c1c(=O)n(CCCCC(C)=O)c(=O)n2C [propentofylline]
- relative cAMP/db-cAMP levels (cAMP): did not lead to elevation in cAMP at 3 or 7 days; also recorded: did not enhance cAMP activity
- adenosine transport (adenosine transport): inhibit adenosine transport
- GLT-1 staining (GLT-1): concomitant increase in GLT-1 staining
- mechanical allodynia (paw withdrawals to 12 g von Frey filament) ([1]; 10 μg daily via lumbar puncture, from one hour prior to transection, vs. L5 saline): significant decrease in mechanical allodynia; also recorded: robustly inhibited the development of mechanical allodynia at all time points tested
- mechanical allodynia compared with normal group ([1]; from day 5 onward (day 5, 7, 9 and 12), P>0.05): no longer discernable from the normal group
